The record followed here is US10010547B2 (CASCADIAN THERAPEUTICS, INC., priority 2014, dated 2018).

Structures can show the parent of a compound that is named as a salt. Where two headings read alike, the source gives them in different places. A value given as a limit tells only on which side of the number the result lay.

Assay [1] addresses Chk-1 kinase (Homo sapiens (Human), UniProt O14757). The assay is described as follows: Chk-1 Kinase Inhibiting Activity (33P-ATP filter assay, CHKtide substrate). It is filed as biochemical. Particulars: against Chk-1 kinase; read-out: IC50. The procedure:
Chk-1 Kinase Inhibiting Activity
The compounds of the invention were tested for activity against Chk-1 kinase using the materials and protocols set out below.
Base Reaction buffer: 20 mM Hepes (pH 7.5), 10 mM MgCl2, 1 mM EGTA, 0.02% Brij35, 0.02 mg/ml BSA, 0.1 mM Na3VO4, 2 mM DTT, 1% DMSO
*Required cofactors are added individually to each kinase reaction
(i) Prepare indicated substrate in freshly prepared Base Reaction Buffer
(ii) Deliver any required cofactors to the substrate solution above
(iii) Deliver indicated kinase into the substrate solution and gently mix
(iv) Deliver compounds in DMSO into the kinase reaction mixture
(v) Deliver ^33P-ATP (specific activity 0.01 μCi/μl final) into the reaction mixture to initiate the reaction.
(vi) Incubate kinase reaction for 120 minutes at room temperature
(vii) Reactions are spotted onto P81 ion exchange paper (Whatman #3698-915)
(viii) Wash filters extensively in 0.1% phosphoric acid.
(ix) Dry filters and measure counts in scintillation counter
Recombinant full length construct, N-terminal GST tagged, purified from insect cells.
No special measures were taken to activate this kinase.
Final concentration in assay=0.5 nM
Peptide sequence: [[…]]
Final concentration in assay=20 μM
No additional cofactors are added to the reaction mixture
From the results obtained by following the above protocol, the IC50 values against Chk-1 kinase of each of the compounds of Examples 1-153 were determined and these are shown in Table 3.

Assay [2] has as its system MIA PaCa-2 cells. As to the kind of experiment: Gemcitabine Combination Cell Assay (Cell Titer Glo). As to conditions: for 10xLS: approximate concentration of Chk1 inhibitor that results in a 10-fold reduction in the IC50 of gemcitabine alone; for 2xLS: approximate concentration of Chk1 inhibitor that results in a two-fold reduction in the IC50 of gemcitabine alone. It is filed as cell-based. The procedure:
Gemcitabine Combination Cell Assay
Exponentially growing MIA PaCa-2 (ATCC CRL-1420) cells are treated with trypsin to remove cells from the plate surface. Approximately 10,000 cells/well are plated in 96 well plates in RPMI containing 10% fetal bovine serum, 1% sodium pyruvate and 1% L-GlutaMax. Cells are allowed to adhere to the plate surface overnight. Serial half-log dilutions of Chk1 inhibitor test compounds and gemcitabine are made with a final highest concentration of 3000 nM and 100 nM, respectively. Chk1 inhibitors and gemcitabine are combined so that each concentration of Chk1 inhibitor is added to each concentration of gemcitabine. Each drug is also tested as a single agent. Drugs are added to adherent cells (in duplicate) and incubated for 72 h. At 72 h the cells are treated with Promega Cell Titer Glo reagent for approximately 15 minutes. Luminescence (relative light units, RLU) is recorded using a BMG Polarstar Omega plate reader. The single agent concentration that results in a 50% reduction in total signal (IC50) is calculated using PRISM software and a four-parameter non-linear regression curve fit. For combination studies the RLUs are plotted using PRISM on an XY plot with the gemcitabine concentration on the X axis and RLU on the Y axis. The RLU for each concentration of Chk1 inhibitor is plotted as a function of gemcitabine concentration. The IC50 for gemcitabine alone and at each concentration of Chk1 is determined using a four-parameter non-linear regression curve fit. The approximate concentration of Chk1 inhibitor that results in a two and ten-fold reduction in the IC50 of gemcitabine alone is calculated as an indication of synergistic potency.
From the results obtained by following the above protocol, the IC50 values against MIAPaca-2 cells of the Chk1 inhibitor alone (Chk1 IC50), the approximate concentration of Chk1 inhibitor that results in a two-fold (2×LS) and a 10-fold (10×LS) reduction in the IC50 of gemcitabine alone of each of the compounds of Examples 1-154 are shown in Table 4.
(In ATP-based viability assays light output follows the ATP content of the culture.)

The mark [3] stands for this setting: Homo sapiens, MIA PaCa-2, 72 h, read-out: Chk1 IC50 (nM).
[4] abbreviates: Homo sapiens, Chk1 inhibitor alone, MIA PaCa-2 cells, 72 h, read-out: Chk1 IC50.

Chain of Chk-1 kinase (O14757 whole entry): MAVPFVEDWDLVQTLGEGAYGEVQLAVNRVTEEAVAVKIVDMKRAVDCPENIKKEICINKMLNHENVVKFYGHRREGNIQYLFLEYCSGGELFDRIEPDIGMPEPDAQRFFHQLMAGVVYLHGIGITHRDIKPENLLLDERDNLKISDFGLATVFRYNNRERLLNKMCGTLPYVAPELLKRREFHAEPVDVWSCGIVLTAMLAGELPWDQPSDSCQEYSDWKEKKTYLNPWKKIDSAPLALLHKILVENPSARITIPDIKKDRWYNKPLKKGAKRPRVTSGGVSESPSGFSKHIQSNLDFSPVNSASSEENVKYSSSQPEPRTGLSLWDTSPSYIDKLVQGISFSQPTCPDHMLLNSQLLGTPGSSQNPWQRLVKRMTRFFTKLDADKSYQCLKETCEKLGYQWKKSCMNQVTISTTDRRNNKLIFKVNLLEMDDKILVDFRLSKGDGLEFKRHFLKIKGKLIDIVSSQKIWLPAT

A word on the IC50: it is the concentration needed to halve the response being measured. Take `COc1cc(C2CCN(C(=O)CN(C)C)CC2)ccc1-c1cc(Nc2cnc(C#N)cn2)n[nH]1` [Example 17, 5-[[5-[4-[1-[2-(Dimethylamino)acetyl]-4-piperidyl]-2-methoxy-phenyl]-1H-pyrazol-3-yl]amino]pyrazine-2-carbonitrile hydrochloride]: the IC50 in assay [1] came out at 0.29 nM. Besides, the IC50 in assay [2] (setting [3]) came out at 1820 nM. Also, in assay [2] (MIA PaCa-2 cells, 72 h), the “10xLS” value turned out to be 300 nM and the “2xLS” value worked out at 10 nM.

For `COc1cc(CNC(=O)C2CC2)ccc1-c1cc(Nc2cnc(C#N)cn2)n[nH]1` [Example 13, N-[[4-[3-[(5-cyanopyrazin-2-yl)amino]-1H-pyrazol-5-yl]-3-methoxy-phenyl]methyl]cyclopropanecarboxamide], in assay [2] (setting [4]), the IC50 is > 3000 nM. Moreover, in assay [2] (MIA PaCa-2 cells, 72 h), the “10xLS” value is 300 nM and the “2xLS” value is given as ~20 nM.

Regarding `CCN1CCC(Oc2ccc(-c3cc(Nc4cnc(C#N)cn4)n[nH]3)c(OC)c2)CC1` [Example 134, 5-[[5-[4-[(1-ethyl-4-piperidyl)oxy]-2-methoxy-phenyl]-1H-pyrazol-3-yl]amino]pyrazine-2-carbonitrile], the IC50 in assay [1] amounted to 0.11 nM. Also, in assay [2] (setting [4]), the half-maximal inhibitory concentration (IC50) came to 352 nM. In assay [2] (MIA PaCa-2 cells, 72 h), the “10xLS” value is given as 100 nM and the “2xLS” value turned out to be 3 nM.

With `COc1cc(C2(F)CCN(C(C)C)CC2)ccc1-c1cc(Nc2cnc(C#N)cn2)n[nH]1` [Example 86, 5-[[5-[4-(4-fluoro-1-isopropyl-4-piperidyl)-2-methoxy-phenyl]-1H-pyrazol-3-yl]amino]pyrazine-2-carbonitrile], the IC50 in assay [1] was found to be 0.12 nM. Further, in assay [2] (setting [4]), the half-maximal inhibitory concentration (IC50) is 239 nM. Further, in assay [2] (MIA PaCa-2 cells, 72 h), the “10xLS” value is reported as <100 nM and the “2xLS” value is listed as <3 nM.

As for `COc1cc(COC2CCN(C)CC2)ccc1-c1cc(Nc2cnc(C#N)cn2)n[nH]1` [Example 113, 5-[[5-[2-methoxy-4-[(1-methyl-4-piperidyl)oxymethyl]phenyl]-1H-pyrazol-3-yl]amino]pyrazine-2-carbonitrile], the IC50 in assay [1] came out at 0.27 nM. In addition, in assay [2] (Chk1 inhibitor alone, MIA PaCa-2 cells, 72 h, read-out: Chk1 IC50), the 50% inhibitory concentration (IC50) amounted to 531 nM. In assay [2] (MIA PaCa-2 cells, 72 h), the “10xLS” value was found to be 300 nM and the “2xLS” value is on record as 3 nM.

`COc1cc(OCc2cocn2)ccc1-c1cc(Nc2cnc(C#N)cn2)n[nH]1` [Example 105, 5-[[5-[2-methoxy-4-(oxazol-4-ylmethoxy)phenyl]-1H-pyrazol-3-yl]amino]pyrazine-2-carbonitrile]: in assay [2] (setting [4]), the IC50 is 2300 nM. In addition, in assay [2] (MIA PaCa-2 cells, 72 h), the “10xLS” value is reported as 1000 nM and the “2xLS” value was determined as 30 nM.

In the case of `CCN1CCO[C@@H](c2ccc(-c3cc(Nc4cnc(C#N)cn4)n[nH]3)c(OC)c2)C1` [Example 120, 5-[[5-[2-methoxy-4-[(2S)-4-ethylmorpholin-2-yl]phenyl]-1H-pyrazol-3-yl]amino]pyrazine-2-carbonitrile], the IC50 in assay [2] (setting [4]) came out at 397 nM. In assay [2] (MIA PaCa-2 cells, 72 h), the “10xLS” value is listed as 100 nM and the “2xLS” value is reported as 3 nM.

Regarding `COc1cc(CN2CC[C@H](OC)C2)ccc1-c1cc(Nc2cnc(C#N)cn2)n[nH]1` [Example 124, 5-[[5-[2-methoxy-4-[[(3S)-3-methoxypyrrolidin-1-yl]methyl]phenyl]-1H-pyrazol-3-yl]amino]pyrazine-2-carbonitrile], the half-maximal inhibitory concentration (IC50) in assay [2] (setting [4]) was determined as 322 nM. For the same compound, in assay [2] (MIA PaCa-2 cells, 72 h), the “10xLS” value is on record as <300 nM and the “2xLS” value turned out to be 3 nM.

In the case of `COc1cc(C[C@@H]2CCCN2C(C)C)ccc1-c1cc(Nc2cnc(C#N)cn2)n[nH]1` [Example 154, 5-[[5-[4-[[(2S)-1-isopropylpyrrolidin-2-yl]methyl]-2-methoxy-phenyl]-1H-pyrazol-3-yl]amino]pyrazine-2-carbonitrile], in assay [2] (setting [4]), the IC50 was 395 nM. For the same compound, in assay [2] (MIA PaCa-2 cells, 72 h), the “10xLS” value is given as 100 nM and the “2xLS” value worked out at 3 nM.

For the compound `COc1cc([C@H]2CN(C)CCO2)ccc1-c1cc(Nc2cnc(C#N)cn2)n[nH]1` [Example 119, 5-[[5-[2-methoxy-4-[(2S)-4-methylmorpholin-2-yl]phenyl]-1H-pyrazol-3-yl]amino]pyrazine-2-carbonitrile], the IC50 in assay [2] (setting [4]) stood at 687 nM. For the same compound, in assay [2] (MIA PaCa-2 cells, 72 h), the “10xLS” value is on record as <300 nM and the “2xLS” value is on record as 10 nM.

As to `COc1cc(C[C@H]2CCCN2C(C)C)ccc1-c1cc(Nc2cnc(C#N)cn2)n[nH]1` [Example 151, 5-[[5-[4-[[(2R)-1-isopropylpyrrolidin-2-yl]methyl]-2-methoxy-phenyl]-1H-pyrazol-3-yl]amino]pyrazine-2-carbonitrile], the IC50 in assay [2] (setting [4]) amounted to 101 nM. Further, in assay [2] (MIA PaCa-2 cells, 72 h), the “10xLS” value was <30 nM and the “2xLS” value is reported as <3 nM.

In the case of `COc1cc(C2CCCCN2C)ccc1-c1cc(Nc2cnc(C#N)cn2)n[nH]1` (stereo not shown) [Example 41, 5-[[5-[2-methoxy-4-(1-methyl-2-piperidyl)phenyl]-1H-pyrazol-3-yl]amino]pyrazine-2-carbonitrile], the IC50 in assay [2] (setting [4]) was determined as 1110 nM. In addition, in assay [2] (MIA PaCa-2 cells, 72 h), the “10xLS” value is reported as 300 nM and the “2xLS” value was determined as 30 nM.

For the compound `N#Cc1cnc(Nc2cc(-c3ccc(CNCc4ccccc4)cc3)[nH]n2)cn1` [Example 5, 5-{5-[4-(benzylamino-methyl)-phenyl]-1H-pyrazol-3-ylamino}-pyrazine-2-carbonitrile], the IC50 in assay [1] is 2 nM.

Consider `COc1cc(CCNCc2ccccc2)ccc1-c1cc(Nc2cnc(C#N)cn2)n[nH]1` [Example 4, 5-{5-[4-(2-Benzylamino-ethyl)-2-methoxy-phenyl]-1H-pyrazol-3-ylamino}-pyrazine-2-carbonitrile hydrochloride], for which the IC50 in assay [1] was found to be 0.19 nM.

Take `CCN1CCC[C@H]1Cc1ccc(-c2cc(Nc3cnc(C#N)cn3)n[nH]2)c(OC)c1` [Example 152, 5-[[5-[4-[[(2S)-1-ethylpyrrolidin-2-yl]methyl]-2-methoxy-phenyl]-1H-pyrazol-3-yl]amino]pyrazine-2-carbonitrile]: in assay [2] (setting [4]), the IC50 was 428 nM. Besides, in assay [2] (MIA PaCa-2 cells, 72 h), the “10xLS” value is 100 nM and the “2xLS” value was found to be 3 nM.

Take `COc1cc([C@H]2CN(C(C)C)CCO2)ccc1-c1cc(Nc2cnc(C#N)cn2)n[nH]1` [Example 150, 5-[[5-[4-[(2S)-4-isopropylmorpholin-2-yl]-2-methoxy-phenyl]-1H-pyrazol-3-yl]amino]pyrazine-2-carbonitrile]: the IC50 in assay [2] (setting [4]) was determined as 259 nM. Moreover, in assay [2] (MIA PaCa-2 cells, 72 h), the “10xLS” value is on record as 100 nM and the “2xLS” value was found to be 3 nM.

Turning to `COc1cc(C2CCNCC2)ccc1-c1cc(Nc2cnc(C(=O)O)cn2)n[nH]1` [Example 45, 5-[[5-[2-methoxy-4-(4-piperidyl)phenyl]-1H-pyrazol-3-yl]amino]pyrazine-2-carboxylic acid], the IC50 in assay [1] is > 100 nM.

On to `COc1cc(CN2CC[C@@H](OC)C2)ccc1-c1cc(Nc2cnc(C#N)cn2)n[nH]1` [Example 125, 5-[[5-[2-methoxy-4-[[(3R)-3-methoxypyrrolidin-1-yl]methyl]phenyl]-1H-pyrazol-3-yl]amino]pyrazine-2-carbonitrile], for which, in assay [2] (setting [4]), the IC50 was found to be 550 nM. Besides, in assay [2] (MIA PaCa-2 cells, 72 h), the “10xLS” value is <300 nM and the “2xLS” value turned out to be 10 nM.

`CCN1CCC[C@@H]1Cc1ccc(-c2cc(Nc3cnc(C#N)cn3)n[nH]2)c(OC)c1` [Example 149, 5-[[5-[4-[[(2R)-1-ethylpyrrolidin-2-yl]methyl]-2-methoxy-phenyl]-1H-pyrazol-3-yl]amino]pyrazine-2-carbonitrile hydrochloride]: the concentration for half-maximal inhibition (IC50) in assay [2] (setting [3]) was 188 nM. Besides, in assay [2] (MIA PaCa-2 cells, 72 h), the “10xLS” value is 30 nM and the “2xLS” value is <3 nM.
